Results on 21 compounds are retold here after ChEMBL document CHEMBL1777735, “Lipophilicity of acidic compounds: impact of ion pair partitioning on drug design” (Bioorg Med Chem Lett, 2011).

Data set [1] can be described thus: 1-Octanol-water distribution coefficient, log D of the compound at pH 7.4 by shake-flask method. Type of data set: physicochemical.
Data set [2] can be described thus: 1-Octanol-sodium citrate buffer distribution coefficient, log D of the compound at pH 5.5 by shake-flask method. Type of data set: physicochemical.
The nature of data set [3]: Plasma protein binding in human. The class given is ADME, cell-free. As to conditions: read-out: PPB (converted).
The nature of data set [4]: Lipophilicity, log P of the compound. Type of data set: physicochemical. To be noted: octanol/water.
The mark [5] stands for this setting: 1-octanol/sodium citrate buffer, read-out: logD.

For the compound `CCCCC1=NC2(CCCC2)C(=O)N1Cc1ccc(-c2ccccc2-c2nnn[nH]2)cc1` [IRBESARTAN], the logD stood at 0.9 in data set [1] and 2.4 in data set [2] (setting [5]). Besides, in data set [3], the fraction unbound was 0.02.

`COc1ccc(Cl)cc1C(=O)NCCc1ccc(S(=O)(=O)NC(=O)NC2CCCCC2)cc1` [GLYBURIDE]: the figures for the logD in data set [1] and in data set [2] (setting [5]) were 2.2 and 3.5, respectively. The fraction unbound in data set [3] is 0.002.

As for `Cc1ccc(S(=O)(=O)NC(=O)NN2CCCCCC2)cc1` [TOLAZAMIDE], the pH-dependent lipophilicity (logD) in data set [1] was found to be 0; in data set [2] (setting [5]), 1.2. In addition, in data set [3], the fraction unbound is 0.06.

Take `CCCCc1nc(Cl)c(CO)n1Cc1ccc(-c2ccccc2-c2nn[nH]n2)cc1` [LOSARTAN]: the log distribution coefficient (logD) worked out at 0.6 in data set [1] and 2.2 in data set [2] (setting [5]). For the same compound, the fraction unbound in data set [3] was 0.02.

As to `CN1C(C(=O)Nc2ccccn2)=C(O)c2ccccc2S1(=O)=O` [PIROXICAM], the log distribution coefficient (logD) in data set [1] is -0.3; in data set [2] (setting [5]), 1.1. Further, in data set [3], the fraction unbound is 0.007.

`O=C(O)CCCc1ccc(N(CCCl)CCCl)cc1` [CHLORAMBUCIL]: the logD was determined as 1.4 in data set [1] and 3.2 in data set [2] (setting [5]). Also, in data set [3], the fraction unbound is 0.01.

`COc1ccc2c(c1)c(CC(=O)O)c(C)n2C(=O)c1ccc(Cl)cc1` [INDOMETHACIN]: in data set [4] (read-out: logP), the logP is 3.8. Besides, in data set [2] (setting [5]), the logD came to 2.7.

Regarding `CCOC(=O)[C@H](CCc1ccccc1)N[C@@H](C)C(=O)N1CCC[C@H]1C(=O)O`, the logD is -1.8 in data set [1] and -0.5 in data set [2] (setting [5]). Further, the fraction unbound in data set [3] was 0.5.

Regarding `Cc1nnc(NS(=O)(=O)c2ccc(N)cc2)s1` [SULFAMETHIZOLE], the log distribution coefficient (logD) in data set [1] is -1.6; in data set [2] (setting [5]), 0. The fraction unbound in data set [3] was 0.065.

In the case of `O=C(O)CCn1c2c(c3ccccc31)C[C@H](NS(=O)(=O)c1ccc(F)cc1)CC2` [RAMATROBAN], the logP in data set [4] (read-out: logP) was 3. Also, the logD in data set [1] came to 0.5; in data set [2] (setting [5]), 2.3. The fraction unbound in data set [3] was 0.025.

`O=C(c1ccccc1)c1ccc2n1CCC2C(=O)O` (stereo unspecified) [KETOROLAC]: in data set [4] (read-out: logP), the logP came out at 2.7. The results for the logD in data set [1] and in data set [2] (setting [5]) were -1 and 0.6, respectively. Also, the fraction unbound in data set [3] is 0.008.

Take `CCOc1cc(CC(=O)N[C@@H](CC(C)C)c2ccccc2N2CCCCC2)ccc1C(=O)O` [REPAGLINIDE]: the figures for the logD in data set [1] and in data set [2] (setting [5]) were 2.2 and 3.2, respectively. Further, the fraction unbound in data set [3] is 0.009.

As to `Cc1ccc(C(=O)c2ccc(CC(=O)O)n2C)cc1` [TOLMETIN], the log partition coefficient (logP) in data set [4] (read-out: logP) was 2.7. The figures for the logD in data set [1] and in data set [2] (setting [5]) were -1 and 0.8, respectively. Also, in data set [3], the fraction unbound was 0.003.

`CC(=O)c1ccc(S(=O)(=O)NC(=O)NC2CCCCC2)cc1` [ACETOHEXAMIDE]: the lipophilicity (logP) in data set [4] (read-out: logP) worked out at 2.4. Also, the pH-dependent lipophilicity (logD) in data set [1] is -0.3; in data set [2] (setting [5]), 1.3. Further, the fraction unbound in data set [3] was 0.25.

The compound `CN(C)S(=O)(=O)NC(=O)CCCc1c(-c2ccc(F)cc2)[nH]c2ccc(C#N)cc12` registered a logP in data set [4] of 2.6. In addition, the values for the log distribution coefficient (logD) in data set [1] and in data set [2] (octanol/water) were 2.8 and 3.7, respectively. Moreover, the fraction unbound in data set [3] was 0.004.

As for `CCOC(=O)[C@H](CCc1ccccc1)N[C@H]1CCc2ccccc2N(CC(=O)O)C1=O` [BENAZEPRIL], in data set [3], the fraction unbound is 0.041.

As to `CCCCNc1cc(C(=O)O)cc(S(N)(=O)=O)c1Oc1ccccc1` [BUMETANIDE], the logD in data set [1] was -0.6; in data set [2] (setting [5]) it was 1.1. In addition, the fraction unbound in data set [3] is 0.016.

As to `CCOC(=O)[C@H](CCc1ccccc1)N[C@@H](C)C(=O)N1[C@H](C(=O)O)C[C@@H]2CCC[C@@H]21`, the fraction unbound in data set [3] is 0.105.

Regarding `Cc1cc(SCc2sc(-c3ccc(C(F)(F)F)cc3)nc2C)ccc1OCC(=O)O` [GW501516], the log distribution coefficient (logD) in data set [1] was 2.2; in data set [2] (setting [5]), 3.5.

As to `O=C(O)CCc1nc(-c2ccccc2)c(-c2ccccc2)o1` [OXAPROZIN], the lipophilicity (logP) in data set [4] (read-out: logP) is 3.1. For the same compound, the log distribution coefficient (logD) in data set [1] stood at 1; in data set [2] (setting [5]) it was 2.5. In data set [3], the fraction unbound was less than 0.001.

For `CCc1cccc2c3c([nH]c12)C(CC)(CC(=O)O)OCC3` (stereo unspecified) [ETODOLAC], the fraction unbound in data set [3] was 0.009.

As usually defined, the logD is the decadic logarithm of the distribution of all forms, ionised or not, between an organic phase and buffer at a given pH. What is called logP is the decadic logarithm of the partition coefficient of the neutral form, usually between octanol and water.
